Key:
Assay type in all cases: in vivo
Triticum aestivum = test: Post-emergence action on crop plants in greenhouse, TRZAS; conditions: crop plant, visual rating after ca. 3 weeks, 100% = plants dead, 0% = like control plants
Description: (§1) Biologische Beispiele: • Die folgenden Abkürzungen werden für die in den folgenden Tabellen aufgeführten Kultur- und Schadpflanzen verwendet: ABUTH: Abutilon theophrasti ALOMY: Alopecurus myosuroides AMARE: Amaranthus retroflexus BRSNS: Brassica napus DIGSA: Digitaria sanguinalis ECHCG: Echinochloa crus-galli GLXMA: Glycine max KCHSC: Kochia scoparia LOLRI: Lolium rigidum MATIN: Matricaria inodora ORYZA: Oryza sativa PHPBU: Pharbitis purpurea POLCO: Polygonum convolvulus SETVI: Setaria viridis VERPE: Veronica persica VIOTR: Viola tricolor TRZAS: Triticum aestivum ZEAMX: Zea mays • A. Herbizide Wirkung im Nachauflauf
(§2) Samen von mono- bzw. dikotylen Kulturpflanzen wurden in Kunststoff- oder Holzfasertöpfen in sandigem Lehmboden ausgelegt, mit Erde abgedeckt und im Gewächshaus unter kontrollierten Wachstumsbedingungen angezogen. 2 bis 3 Wochen nach der Aussaat wurden die Versuchspflanzen im Einblattstadium behandelt. Die in Form von benetzbaren Pulvern (WP) oder als Emulsionskonzentrate (EC) formulierten erfindungsgemäßen Verbindungen wurden dann als wässrige Suspension bzw. Emulsion unter Zusatz von 0,5% Additiv mit einer Wasseraufwandmenge von umgerechnet 600 l/ha auf die grünen Pflanzenteile gesprüht. Nach ca. 3 Wochen Standzeit der Versuchspflanzen im Gewächshaus, unter optimalen Wachstumsbedingungen, wurde die Wirkung der Präparate visuell im Vergleich zu unbehandelten Kontrollen bonitiert. Beispielsweise bedeutet 100% Wirkung = Pflanzen sind abgestorben, 0% Wirkung = wie Kontrollpflanzen.
(§3) In den nachstehenden Tabellen B1 bis B4 sind die Wirkungen ausgewählter Verbindungen der allgemeinen Formel (I) gemäß der Tabelle 1 auf verschiedene Kulturpflanzen und einer Aufwandmenge entsprechend 20 g/ha und niedriger, die gemäß zuvor genannter Versuchsvorschrift erhalten wurden, dargestellt. Tabelle B1a: Nachauflaufwirkung bei 1,25 g/ha gegen ZEAMX in %

Pharbitis purpurea = test: Post-emergence herbicidal action in greenhouse against PHBPU; conditions: visual rating after ca. 3 weeks
Description: as §1
as §2, with “Unkrautpflanzen” for “Kulturpflanzen”
as §3, with “A1” for “B1”, “A11” for “B4”, “Schadpflanzen” for “Kulturpflanzen”, “A1a:” for “B1a:”, “ABUTH” for “ZEAMX”

Amaranthus retroflexus = test: Post-emergence herbicidal action in greenhouse against AMARE; conditions: post-emergence spray, 600 l/ha water, visual rating after ca. 3 weeks vs untreated controls, 100% = plants dead, 0% = like control plants
Description: as §1
as §2, with “Unkrautpflanzen” for “Kulturpflanzen”
as §3, with “A1” for “B1”, “A11” for “B4”, “Schadpflanzen” for “Kulturpflanzen”, “A1a:” for “B1a:”, “ABUTH” for “ZEAMX”

Oryza sativa = test: Post-emergence action on crop plants in greenhouse, ORYZA; conditions: crop plant, visual rating after ca. 3 weeks, 100% = plants dead, 0% = like control plants
Description: as §1, §2, §3

Veronica persica = test: Post-emergence herbicidal action in greenhouse against VERPE; conditions: visual rating after ca. 3 weeks
Description: as §1
as §2, with “Unkrautpflanzen” for “Kulturpflanzen”
as §3, with “A1” for “B1”, “A11” for “B4”, “Schadpflanzen” for “Kulturpflanzen”, “A1a:” for “B1a:”, “ABUTH” for “ZEAMX”

Zea mays = test: Post-emergence action on crop plants in greenhouse, ZEAMX; conditions: 1,25 g/ha, crop plant, post-emergence, visual rating after ca. 3 weeks; 100% = plants dead, 0% = like control plants
Description: as §1, §2, §3

Viola tricolor = test: Post-emergence herbicidal action in greenhouse against VIOTR; conditions: visual rating after ca. 3 weeks
Description: as §1
as §2, with “Unkrautpflanzen” for “Kulturpflanzen”
as §3, with “A1” for “B1”, “A11” for “B4”, “Schadpflanzen” for “Kulturpflanzen”, “A1a:” for “B1a:”, “ABUTH” for “ZEAMX”

Setaria viridis = test: Post-emergence herbicidal action in greenhouse against SETVI; conditions: visual rating after ca. 3 weeks
Description: as §1
as §2, with “Unkrautpflanzen” for “Kulturpflanzen”
as §3, with “A1” for “B1”, “A11” for “B4”, “Schadpflanzen” for “Kulturpflanzen”, “A1a:” for “B1a:”, “ABUTH” for “ZEAMX”

Polygonum convolvulus = test: Post-emergence herbicidal action in greenhouse against POLCO; conditions: visual rating after ca. 3 weeks
Description: as §1
as §2, with “Unkrautpflanzen” for “Kulturpflanzen”
as §3, with “A1” for “B1”, “A11” for “B4”, “Schadpflanzen” for “Kulturpflanzen”, “A1a:” for “B1a:”, “ABUTH” for “ZEAMX”

Digitaria sanguinalis = test: Post-emergence herbicidal action in greenhouse against DIGSA; conditions: visual rating after ca. 3 weeks
Description: as §1
as §2, with “Unkrautpflanzen” for “Kulturpflanzen”
as §3, with “A1” for “B1”, “A11” for “B4”, “Schadpflanzen” for “Kulturpflanzen”, “A1a:” for “B1a:”, “ABUTH” for “ZEAMX”

Matricaria inodora = test: Post-emergence herbicidal action in greenhouse against MATIN; conditions: visual rating after ca. 3 weeks
Description: as §1
as §2, with “Unkrautpflanzen” for “Kulturpflanzen”
as §3, with “A1” for “B1”, “A11” for “B4”, “Schadpflanzen” for “Kulturpflanzen”, “A1a:” for “B1a:”, “ABUTH” for “ZEAMX”

Brassica napus = test: Post-emergence action on crop plants in greenhouse, BRSNS; conditions: crop plant; 1,25 g/ha; post-emergence spray, 600 l/ha water; visual rating after ca. 3 weeks vs untreated controls; 100% = plants dead, 0% = like control plants
Description: as §1
as §2, with “Nach ca. 3 Wochen Standzeit der Versuchspflanzen im Gewächshaus, unter optimalen Wachstumsbedingungen, wurde die Wirkung der Präparate visuell im Vergleich zu unbehandelten Kontrollen bonitiert. Beispielsweise bedeutet 100% Wirkung = Pflanzen sind abgestorben, 0% Wirkung = wie Kontrollpflanzen.” left out

Lolium rigidum = test: Post-emergence herbicidal action in greenhouse against LOLRI; conditions: 20 g/ha; post-emergence spray, 600 l/ha water; visual rating after ca. 3 weeks vs untreated controls; 100% = plants dead, 0% = like control plants
Description: as §1
as §2, with “Unkrautpflanzen” for “Kulturpflanzen”
as §3, with “A1” for “B1”, “A11” for “B4”, “Schadpflanzen” for “Kulturpflanzen”, “A1a:” for “B1a:”, “ABUTH” for “ZEAMX”

Alopecurus myosuroides = test: Post-emergence herbicidal action in greenhouse against ALOMY; conditions: post-emergence spray, 600 l/ha water, visual rating after ca. 3 weeks vs untreated controls, 100% = plants dead, 0% = like control plants
Description: as §1
as §2, with “Unkrautpflanzen” for “Kulturpflanzen”
as §3, with “A1” for “B1”, “A11” for “B4”, “Schadpflanzen” for “Kulturpflanzen”, “A1a:” for “B1a:”, “ABUTH” for “ZEAMX”

Abutilon theophrasti = test: Post-emergence herbicidal action in greenhouse against ABUTH; conditions: post-emergence spray, 600 l/ha water, visual rating after ca. 3 weeks vs untreated controls, 100% = plants dead, 0% = like control plants
Description: as §1
as §2, with “Unkrautpflanzen” for “Kulturpflanzen”
as §3, with “A1” for “B1”, “A11” for “B4”, “Schadpflanzen” for “Kulturpflanzen”, “A1a:” for “B1a:”, “ABUTH” for “ZEAMX”

Nachauflaufwirkung gegen TRZAS (Triticum aestivum; 1,25 g/ha) | Nachauflaufwirkung gegen TRZAS (Triticum aestivum; 5 g/ha) | Nachauflaufwirkung gegen ORYZA (Oryza sativa; 1,25 g/ha) | Nachauflaufwirkung gegen ZEAMX (Zea mays) | Structure (SMILES) | Nachauflaufwirkung gegen PHBPU (Pharbitis purpurea; 5 g/ha) | Nachauflaufwirkung gegen PHBPU (Pharbitis purpurea; 20 g/ha) | Nachauflaufwirkung gegen AMARE (Amaranthus retroflexus; 1,25 g/ha) | Nachauflaufwirkung gegen AMARE (Amaranthus retroflexus; 5 g/ha) | Nachauflaufwirkung gegen AMARE (Amaranthus retroflexus; 20 g/ha) | Nachauflaufwirkung gegen VERPE (Veronica persica; 20 g/ha) | Nachauflaufwirkung gegen VIOTR (Viola tricolor; 5 g/ha) | Nachauflaufwirkung gegen VIOTR (Viola tricolor; 20 g/ha) | Nachauflaufwirkung gegen SETVI (Setaria viridis; 1,25 g/ha) | Nachauflaufwirkung gegen SETVI (Setaria viridis; 5 g/ha) | Nachauflaufwirkung gegen SETVI (Setaria viridis; 20 g/ha) | Nachauflaufwirkung gegen POLCO (Polygonum convolvulus; 5 g/ha) | Nachauflaufwirkung gegen POLCO (Polygonum convolvulus; 20 g/ha) | Nachauflaufwirkung gegen DIGSA (Digitaria sanguinalis; 20 g/ha) | Nachauflaufwirkung gegen MATIN (Matricaria inodora; 20 g/ha) | Nachauflaufwirkung gegen LOLRI (Lolium rigidum) | also measured
0% | 0% | 0% | 20% | CC(C)(OC(=O)c1cc(-n2c(=O)cc(C(F)(F)F)n(N)c2=O)ccc1Cl)C(=O)O [I.2-481, 2-({5-[3-Amino-2,6-dioxo-4-(trifluormethyl)-3,6-dihydropyrimidin-1(2H)-yl]-2-chlorbenzoyl}oxy)-2-methylpropansäure] | 100% | 100% | 90% | 100% | 100% | 100% | 80% | 100% | 80% | 90% | 100% | 100% | 100% | 100% | 100% |  | Nachauflaufwirkung gegen TRZAS (Triticum aestivum; 20 g/ha): 20%; Nachauflaufwirkung gegen ORYZA (Oryza sativa; 5 g/ha): 0%; Nachauflaufwirkung gegen ORYZA (Oryza sativa; 20 g/ha): 0%; Nachauflaufwirkung gegen BRSNS (Brassica napus): 0%
0% | 10% | 0% | 20% | CC(C)(OC(=O)c1cc(-n2c(=O)cc(C(F)(F)F)n(N)c2=O)c(F)cc1Cl)C(=O)OCc1ccccn1 [I.1-286] | 100% | 100% | 100% | 100% | 100% | 100% | 100% | 100% | 100% | 100% | 100% | 100% | 100% | 100% | 100% | 90% | Nachauflaufwirkung gegen ALOMY (Alopecurus myosuroides; 20 g/ha): 90%; Nachauflaufwirkung gegen PHBPU (Pharbitis purpurea; 1,25 g/ha): 100%; Nachauflaufwirkung gegen ABUTH (Abutilon theophrasti; 1,25 g/ha): 90%; Nachauflaufwirkung gegen ABUTH (Abutilon theophrasti; 5 g/ha): 100%; Nachauflaufwirkung gegen ABUTH (Abutilon theophrasti; 20 g/ha): 100%; Nachauflaufwirkung gegen VERPE (Veronica persica; 1,25 g/ha): 100%; Nachauflaufwirkung gegen VERPE (Veronica persica; 5 g/ha): 100%; Nachauflaufwirkung gegen VIOTR (Viola tricolor; 1,25 g/ha): 90%; Nachauflaufwirkung gegen DIGSA (Digitaria sanguinalis; 5 g/ha): 100%; Nachauflaufwirkung gegen MATIN (Matricaria inodora; 5 g/ha): 90%
0% | 0% | 0% | 0% | COCCOC(=O)C(C)(C)OC(=O)c1cc(-n2c(=O)cc(C(F)(F)F)n(N)c2=O)c(F)cc1Cl [I.1-1] | 100% | 100% | 100% | 100% | 100% | 100% | 100% | 100% | 100% | 100% | 100% | 100% | 100% | 100% | 100% | 90% | Nachauflaufwirkung gegen ALOMY (Alopecurus myosuroides; 5 g/ha): 80%; Nachauflaufwirkung gegen ALOMY (Alopecurus myosuroides; 20 g/ha): 90%; Nachauflaufwirkung gegen PHBPU (Pharbitis purpurea; 1,25 g/ha): 100%; Nachauflaufwirkung gegen ABUTH (Abutilon theophrasti; 1,25 g/ha): 90%; Nachauflaufwirkung gegen ABUTH (Abutilon theophrasti; 5 g/ha): 100%; Nachauflaufwirkung gegen ABUTH (Abutilon theophrasti; 20 g/ha): 100%; Nachauflaufwirkung gegen VERPE (Veronica persica; 1,25 g/ha): 100%; Nachauflaufwirkung gegen VERPE (Veronica persica; 5 g/ha): 100%; Nachauflaufwirkung gegen VIOTR (Viola tricolor; 1,25 g/ha): 80%; Nachauflaufwirkung gegen DIGSA (Digitaria sanguinalis; 5 g/ha): 100%; Nachauflaufwirkung gegen MATIN (Matricaria inodora; 5 g/ha): 100%

Source: EP4230620A1, “SUBSTITUTED N-AMINO-N-BENZOIC ACID URACILS, THEIR SALTS AND USE OF SAID COMPOUNDS AS HERBICIDAL AGENTS” (Bayer Aktiengesellschaft, priority 2022, dated 2023)
